Measurements from ChEMBL document CHEMBL3425460, “Stereoselective synthesis of 11-phenylundeca-5Z,9Z-dienoic acid and investigation of its human topoisomerase I and IIα inhibitory activity” (Bioorg Med Chem Lett, 2015).
Active and inactive are the calls of the source. The calls are words filed in the database; no cut-off is given here.

What was measured:
DNA topoisomerase 1 = molecular target: T1, DNA topoisomerase 1 (Homo sapiens, UniProt P11387); assay: Inhibition of human topoisomerase 1-mediated DNA cleavage assessed as accumulation of nicked DNA by ethidium bromide staining based electrophoregram
T1 sequence (P11387 whole entry): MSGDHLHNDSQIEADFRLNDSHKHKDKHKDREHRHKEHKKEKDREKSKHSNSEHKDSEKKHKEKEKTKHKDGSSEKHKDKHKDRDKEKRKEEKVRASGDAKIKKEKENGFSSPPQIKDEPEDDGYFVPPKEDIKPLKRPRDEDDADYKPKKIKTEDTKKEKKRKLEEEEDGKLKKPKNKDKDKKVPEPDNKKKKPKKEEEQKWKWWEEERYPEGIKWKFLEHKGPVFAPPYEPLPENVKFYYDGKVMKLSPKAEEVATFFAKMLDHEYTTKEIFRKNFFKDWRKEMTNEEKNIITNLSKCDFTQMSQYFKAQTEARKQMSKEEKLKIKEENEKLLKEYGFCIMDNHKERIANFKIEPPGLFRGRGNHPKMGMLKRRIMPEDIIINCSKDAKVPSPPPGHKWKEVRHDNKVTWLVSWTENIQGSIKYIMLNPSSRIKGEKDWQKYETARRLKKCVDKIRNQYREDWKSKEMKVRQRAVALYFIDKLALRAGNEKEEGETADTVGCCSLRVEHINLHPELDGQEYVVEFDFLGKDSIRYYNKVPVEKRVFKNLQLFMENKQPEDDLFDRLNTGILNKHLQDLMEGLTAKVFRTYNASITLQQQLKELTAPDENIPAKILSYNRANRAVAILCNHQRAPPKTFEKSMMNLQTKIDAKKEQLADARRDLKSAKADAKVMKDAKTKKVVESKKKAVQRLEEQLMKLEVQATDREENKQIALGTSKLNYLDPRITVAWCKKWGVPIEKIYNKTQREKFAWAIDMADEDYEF

[1] = Induction of pHOT1 DNA (unknown origin) cleavage assessed as conversion of supercoiled DNA to linear and nicked form of DNA at 5 to 500 uM after 30 mins by gel electrophoretic mobility assay
[2] = molecular target: DNA topoisomerase 2-alpha (Homo sapiens) (UniProt P11388); assay: Inhibition of human topoisomerase 2 alpha-mediated DNA cleavage assessed as accumulation of nicked DNA at 0.06 to 10 uM by electrophoregram
[3] = molecular target: DNA topoisomerase 2-alpha (Homo sapiens) (UniProt P11388); assay: Inhibition of human topoisomerase 2 alpha-mediated DNA cleavage assessed as accumulation of nicked DNA at 0.06 to 10 uM by ethidium bromide staining based electrophoregram
[4] = molecular target: DNA topoisomerase 2-alpha (Homo sapiens) (UniProt P11388); assay: Inhibition of human topoisomerase 2 alpha-mediated DNA cleavage assessed as linear form of plasmid by electrophoregram
[5] = molecular target: T2, DNA topoisomerase 1 (Homo sapiens) (UniProt P11387); settings: 0.06 to 10 uM
T2 sequence (whole entry): T1 sequence (P11387 whole entry)
Description: Inhibition of human topoisomerase 1-mediated DNA cleavage assessed as accumulation of nicked DNA at 0.06 to 10 uM by ethidium bromide staining based electrophoregram

Sequence of DNA topoisomerase 2-alpha (Homo sapiens) (P11388 whole entry): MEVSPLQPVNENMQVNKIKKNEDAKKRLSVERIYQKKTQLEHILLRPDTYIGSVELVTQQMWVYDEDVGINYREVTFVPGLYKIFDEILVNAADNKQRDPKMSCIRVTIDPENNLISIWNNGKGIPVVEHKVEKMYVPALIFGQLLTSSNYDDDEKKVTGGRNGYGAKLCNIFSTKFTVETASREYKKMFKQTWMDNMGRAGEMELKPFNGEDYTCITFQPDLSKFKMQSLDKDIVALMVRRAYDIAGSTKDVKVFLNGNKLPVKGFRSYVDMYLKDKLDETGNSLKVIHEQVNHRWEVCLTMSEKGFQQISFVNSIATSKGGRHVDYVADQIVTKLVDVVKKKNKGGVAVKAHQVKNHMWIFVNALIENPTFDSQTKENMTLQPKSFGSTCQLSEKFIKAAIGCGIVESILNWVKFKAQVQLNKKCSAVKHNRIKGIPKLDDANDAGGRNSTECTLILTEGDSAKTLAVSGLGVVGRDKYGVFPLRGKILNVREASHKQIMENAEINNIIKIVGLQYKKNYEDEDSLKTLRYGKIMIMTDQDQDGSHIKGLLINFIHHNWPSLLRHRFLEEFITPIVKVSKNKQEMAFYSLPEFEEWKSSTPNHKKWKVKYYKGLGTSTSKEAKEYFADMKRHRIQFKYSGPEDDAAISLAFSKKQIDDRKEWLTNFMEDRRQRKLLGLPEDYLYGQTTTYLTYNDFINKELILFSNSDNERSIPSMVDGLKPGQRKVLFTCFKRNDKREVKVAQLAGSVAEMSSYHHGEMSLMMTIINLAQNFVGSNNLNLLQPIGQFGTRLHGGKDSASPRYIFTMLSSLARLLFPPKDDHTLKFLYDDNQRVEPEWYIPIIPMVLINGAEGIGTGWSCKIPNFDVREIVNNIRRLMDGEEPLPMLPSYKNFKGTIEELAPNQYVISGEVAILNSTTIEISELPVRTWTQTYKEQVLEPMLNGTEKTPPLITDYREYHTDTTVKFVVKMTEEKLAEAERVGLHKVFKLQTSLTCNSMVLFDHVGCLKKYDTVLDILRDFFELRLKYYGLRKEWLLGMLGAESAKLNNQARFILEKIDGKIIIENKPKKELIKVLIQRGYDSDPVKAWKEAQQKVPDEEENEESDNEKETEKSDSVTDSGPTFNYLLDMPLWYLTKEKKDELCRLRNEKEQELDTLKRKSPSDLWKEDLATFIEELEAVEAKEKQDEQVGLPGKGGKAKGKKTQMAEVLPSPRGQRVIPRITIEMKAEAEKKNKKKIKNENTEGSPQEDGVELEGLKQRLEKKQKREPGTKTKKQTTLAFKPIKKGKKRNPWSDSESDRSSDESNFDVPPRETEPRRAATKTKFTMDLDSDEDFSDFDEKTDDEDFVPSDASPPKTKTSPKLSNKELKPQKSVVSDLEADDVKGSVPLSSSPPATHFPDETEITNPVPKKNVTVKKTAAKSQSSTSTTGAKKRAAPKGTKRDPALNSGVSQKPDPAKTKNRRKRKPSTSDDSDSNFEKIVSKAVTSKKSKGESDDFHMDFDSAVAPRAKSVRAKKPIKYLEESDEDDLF

IC50 (DNA topoisomerase 1) | Activity [1] | inhibition [2] | inhibition [3] | inhibition [4] | inhibition [5] | SMILES
810 nM | – | – | – | – | – | CCCCCCCCCC/C=C\CC/C=C\CCCC(=O)O
670 nM | Active | Active | Active | Dose-dependent effect | Active | O=C(O)CCC/C=C\CC/C=C\Cc1ccccc1
